Consider nine compounds from publication PMC7080406 (eLife, 2020).

The structures appear in SMILES notation. Several values for one entry are separate records, joined by “and”; a condition that tells them apart may be missing. Identical values can stand only once. Like-named read-outs stand apart in the source and are kept apart here.

The term Emax denotes the size of the effect at its maximum, as opposed to the concentration needed.

Assay [1] concerns the target T1, MT1 (Homo sapiens, UniProt P48039).
T1 construct: expressed in transfected cells; host or cells: HEK293T (ATCC CRL-11268), transient transfection
The experiment in a line: GloSensor Gi/o-mediated cAMP production inhibition assay, MT1. The assay is classed as cell-based. To be noted: for EC50: Gi/o mediated; for MT1 LE: ligand efficiency (based on EC50); for Emax: read-out: MT1 Emax ± SEM. As for the experimental part: (§1) Briefly, HEK293 T cells (as above) were transiently co-transfected with receptor (MT1 or MT2) and GloSensor cAMP (Promega) plasmids overnight, plated in Poly-L-Lysine coated 384-well white clear bottom plates in DMEM + 1% dialyzed FBS. Cells were used for assays at a minimum of 6 hr after plating. Culture medium was first removed and cells were stimulated with drugs in assay buffer (1x HBSS, 20 mM HEPES, 1 mg/ml BSA, 0.1 mg/ml ascorbic acid, pH 7.4) for 15 min at room temperature (this and all the following steps), followed by addition of a mixture of isoproterenol (final of 100 nM) and luciferin (final of 1 mM) for Gi/o-cAMP production inhibition assays and luciferin (final of 1 mM) for Gs-cAMP production assays. The plates were counted for luminescence after 25 min in a luminescence plate reader. Results were analyzed using GraphPad Prism 7.0.
For orientation: Cyclic AMP is a second messenger, typically raised through Gs and lowered through Gi signalling.

Assay [2] addresses T1, MT1. The assay can be described thus: [3H]melatonin competition radioligand binding, MT1 membranes. To be noted: read-out: MT1 pKi ± SEM (converted). As to the method: (§2) The Radioligand binding assays were conducted by the NIMH Psychoactive Drug Screening Program (PDSP). The NIMH PDSP is directed by Bryan L. Roth, MD, PhD, at the University of North Carolina at Chapel Hill, North Carolina, and Program Officer Jamie Driscoll at NIMH, Bethesda, MD. Binding assay procedures and protocols are also available online at http://pdspdb.unc.edu/pdspWeb/?site=assays. […] Assay plates were sealed and incubated for 4 hr at 37°C in a humidified incubator until harvesting. Plates were harvested using vacuum filtration onto 0.3% polyethyleneimine pre-soaked 96-well Filtermat A (PerkinElmer) and washed three times with cold wash buffer (50 mM Tris, pH 7.4). Filters were dried and melted with a scintillation cocktail (Meltilex, PerkinElmer). Radioactivity was counted using a Wallac TriLux Microbeta counter (PerkinElmer). Results were analyzed using GraphPad Prism 7.0.

Assay [3] addresses T2, MT2 (Homo sapiens, UniProt P49286).
T2 sequence (P49286 1-362): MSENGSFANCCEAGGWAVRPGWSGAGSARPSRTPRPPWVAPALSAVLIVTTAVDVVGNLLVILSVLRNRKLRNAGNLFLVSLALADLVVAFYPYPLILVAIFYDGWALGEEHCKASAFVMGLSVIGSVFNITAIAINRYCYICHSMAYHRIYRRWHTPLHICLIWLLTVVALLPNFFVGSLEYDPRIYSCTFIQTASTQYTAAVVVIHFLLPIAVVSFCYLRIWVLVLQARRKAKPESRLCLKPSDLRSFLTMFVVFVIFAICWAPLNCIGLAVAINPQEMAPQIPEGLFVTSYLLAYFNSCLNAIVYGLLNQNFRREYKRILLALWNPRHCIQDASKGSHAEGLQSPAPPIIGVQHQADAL
The assay can be described thus: [3H]melatonin competition radioligand binding, MT2 membranes. On the set-up: expressed in transfected cells; host or cells: HEK293T (ATCC CRL-11268), transient transfection. To be noted: read-out: MT2 pKi ± SEM (converted). As for the experimental part:
as §2

For assay [4], the target named is T2, MT2. The assay can be described thus: GloSensor Gi/o-mediated cAMP production inhibition assay, MT2. To be noted: for MT2/MT1 Selectivity: Antilog (log(Emax/EC50) MT2 - log (Emax/EC50) MT1), values below 1 = MT1 selectivity; for EC50: Gi/o mediated, read-out: MT2 EC50; for Emax: MT2, activation compared to melatonin, read-out: MT2 Emax ± SEM; for MT2 LE: ligand efficiency (based on EC50). The assay is classed as cell-based. On the set-up: expressed in transfected cells; host or cells: HEK293T (ATCC CRL-11268), transient transfection. As for the experimental part:
as §1

[5] abbreviates: SEM, N = 3, read-out: MT1 pEC50 ± SEM (converted).

T1 sequence (P48039 whole entry): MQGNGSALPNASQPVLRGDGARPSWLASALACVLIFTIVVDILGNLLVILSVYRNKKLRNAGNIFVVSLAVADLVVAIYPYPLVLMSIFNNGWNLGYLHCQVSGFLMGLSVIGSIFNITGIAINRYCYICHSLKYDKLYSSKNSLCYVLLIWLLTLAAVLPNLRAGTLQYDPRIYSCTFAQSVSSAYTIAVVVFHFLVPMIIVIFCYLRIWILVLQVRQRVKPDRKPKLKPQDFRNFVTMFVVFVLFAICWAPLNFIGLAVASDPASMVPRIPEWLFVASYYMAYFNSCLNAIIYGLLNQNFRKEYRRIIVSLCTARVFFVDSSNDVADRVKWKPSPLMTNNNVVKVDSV

For `COc1cccc([C@@H]2C[C@H]2CNC(=O)C(N)=O)c1` (racemic) [Compound 23, rac-N'-{[(1R,2R)-2-(3-methoxyphenyl)cyclopropyl]methyl}ethanediamide], the EC50 at MT1 [1] (setting [5]) is 0.0692 µM. Further, the EC50 at MT1 [1] (read-out: MT1 EC50) came to 0.0575 µM. At MT1 [1], the “MT1 LE” value is listed as 0.56 kcal/mol per non-hydrogen atom and the Emax came out at 96.9 ± 5.3%. For the same compound, the Ki on MT1 [2] was 3.8 µM. Besides, on MT2 [3], the Ki was 2.75 µM. Also, on MT2 [4], the “MT2/MT1 Selectivity” value is recorded as 2.7 fold, the EC50 is 0.0204 µM, the Emax amounted to 91.7 ± 3% and the “MT2 LE” value is 0.60 kcal/mol per non-hydrogen atom.
Take `CC(=O)NCC1CCCCN1c1ccnc(C)n1` (stereo not shown) [Compound 29, N-{[1-(2-methylpyrimidin-4-yl)piperidin-2-yl]methyl}acetamide]: the EC50 on MT1 [1] (setting [5]) was 0.148 µM. The EC50 at MT1 [1] (read-out: MT1 EC50) stood at 0.144 µM. Moreover, at MT1 [1], the “MT1 LE” value was 0.53 kcal/mol per non-hydrogen atom and the maximum response (Emax) is 87.5 ± 4.5%. For the same compound, the Ki at MT1 [2] is 6.03 µM. Moreover, the Ki on MT2 [3] was 2.45 µM. Besides, at MT2 [4], the “MT2/MT1 Selectivity” value is 3.3 fold, the EC50 was 0.0347 µM, the Emax was less than 70% and the “MT2 LE” value is 0.58 kcal/mol per non-hydrogen atom.
Regarding `COc1cccc(Cn2c(N)cc(=O)[nH]c2=O)c1` [Compound 44, 6-amino-1-[(3-methoxyphenyl)methyl]-1,2,3,4-tetrahydropyrimidine-2,4-dione], the EC50 at MT1 [1] (read-out: MT1 EC50) was found to be 57.5 µM. At MT1 [1], the “MT1 LE” value was 0.33 kcal/mol per non-hydrogen atom and the Emax turned out to be 72.8 ± 4.7%. Further, the Ki on MT1 [2] is 64.6 µM. Further, on MT2 [3], the Ki was 11.2 µM. Also, at MT2 [4], the “MT2/MT1 Selectivity” value is 267 fold and 267.2 fold; the EC50 was 0.263 µM; the Emax worked out at 88.9 ± 6.3%; the “MT2 LE” value is recorded as 0.51 kcal/mol per non-hydrogen atom.
`CC(=O)c1sc2nc3c(cc2c1N)CCC3` [Compound 45]: the EC50 on MT1 [1] (read-out: MT1 EC50) is 8.71 µM. Also, at MT1 [1], the “MT1 LE” value was 0.44 kcal/mol per non-hydrogen atom and the maximum response (Emax) came to 90.6 ± 14.3%. For the same compound, at MT1 [2], the Ki was 28.8 µM. In addition, the Ki at MT2 [3] was 5.5 µM. On MT2 [4], the “MT2/MT1 Selectivity” value is 17 fold and 16.9 fold; the EC50 came to 0.427 µM; the maximal response (Emax) was determined as 75 ± 7.4%; the “MT2 LE” value was 0.56 kcal/mol per non-hydrogen atom.
With `NC(=O)c1cc(C(=O)c2ccccc2Cl)c[nH]1` [Compound 47], the EC50 at MT1 [1] (read-out: MT1 EC50) came out at 2.34 µM. Moreover, at MT1 [1] (text value, read-out: MT1 EC50), the EC50 was 2.34 µM. Besides, on MT1 [1], the “MT1 LE” value was 0.46 kcal/mol per non-hydrogen atom and the Emax is 112 ± 5.2%. The Ki at MT1 [2] is 26.3 µM. For the same compound, the Ki at MT2 [3] is 1.23 µM. Besides, at MT2 [4], the “MT2/MT1 Selectivity” value was 187 fold and 186.9 fold; the EC50 was 0.01 µM and 0.0102 µM; the maximal response (Emax) is 91.7 ± 3%; the “MT2 LE” value is given as 0.66 kcal/mol per non-hydrogen atom.
In the case of `COC(=O)c1[nH]c2cc(OC)ccc2c1N` [Compound 54], the EC50 at MT1 [1] (setting [5]) was 0.871 µM. In addition, the EC50 on MT1 [1] (read-out: MT1 EC50) is 0.741 µM. For the same compound, on MT1 [1], the “MT1 LE” value is given as 0.54 kcal/mol per non-hydrogen atom and the Emax turned out to be 82.8 ± 4.3%. Besides, the Ki on MT1 [2] is 9.33 µM. At MT2 [3], the Ki was 2.75 µM. For the same compound, at MT2 [4], the “MT2/MT1 Selectivity” value turned out to be 36.9 fold, the EC50 is 0.0182 µM, the maximal effect (Emax) was determined as 75 ± 3.7% and the “MT2 LE” value is listed as 0.68 kcal/mol per non-hydrogen atom.
With `COc1cccc(CNC(=O)c2ccno2)c1` [Compound 57, N-[(3-methoxyphenyl)methyl]-1,2-oxazole-5-carboxamide], the EC50 on MT1 [1] (setting [5]) was 1.91 µM. Also, the EC50 at MT1 [1] (read-out: MT1 EC50) is 1.78 µM. At MT1 [1], the “MT1 LE” value was 0.47 kcal/mol per non-hydrogen atom and the maximal response (Emax) worked out at 87.5 ± 9.1%. Besides, on MT1 [2], the Ki was 14.5 µM. In addition, at MT2 [3], the Ki is 4.27 µM. Further, on MT2 [4], the “MT2/MT1 Selectivity” value stood at 10.3 fold, the EC50 was 0.132 µM, the maximum response (Emax) is less than 70% and the “MT2 LE” value was 0.57 kcal/mol per non-hydrogen atom.
For `Nc1cc(=O)[nH]c(=S)n1CCc1ccccc1` [Compound 62], the EC50 is 40.7 µM on MT1 [1] (setting [5]), 42.7 µM on MT1 [1] (read-out: MT1 EC50) and 0.0525 µM at MT2 [4]. Besides, at MT1 [1], the “MT1 LE” value is on record as 0.36 kcal/mol per non-hydrogen atom. Further, the maximal effect (Emax) was 54.1 ± 10% at MT1 [1] and less than 70% on MT2 [4]. For the same compound, the values for the Ki on MT1 [2] and at MT2 [3] were 47.9 µM and 3.24 µM, respectively. For the same compound, the “MT2/MT1 Selectivity” value at MT2 [4] was determined as 875.9 fold. The “MT2 LE” value on MT2 [4] is 0.60 kcal/mol per non-hydrogen atom.
Regarding `COc1ccc2[nH]cc(CCNC(C)=O)c2c1` [Melatonin, N-acetyl-5-methoxytryptamine, reference compound], the Emax on MT1 [1] worked out at 100 ± 5.6%.
